Laboratory results as given in the supplement of paper PMC10307832.

Columns and labels:
Assay in all cases: relative viability (nuclei count vs DMSO), 5 days (fraction); higher = more cells survive
[1] = compound: CN1CCC(CC1)OC2=CC(=C(C=C2)NC3=NC=C4C(=N3)N(C(=O)N4C)C5CCCC5)OC [AZ3146] + CCNC(=O)c1noc(-c2cc(C(C)C)c(O)cc2O)c1-c1ccc(CN2CCOCC2)cc1 [Luminespib] (partner 0.01 µM)
Method in brief: (§1)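 For relative viability, nuclei counts in treated wells were divided by those in vehicle wells. Lung cancer cell lines had been pin-tool dosed in 1536-well plates the day after seeding and cultured for 5 days, then fixed and stained in one step (final 0.05% Triton X-100, 1% formaldehyde, 1 ug/ml Hoechst) and imaged at 4×. Doses were one drug alone or a fixed anchor-drug dose plus five library-drug doses (not always all listed) in √10 steps, and values are duplicate-plate medians.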

[2] = compound: CN1CCC(CC1)OC2=CC(=C(C=C2)NC3=NC=C4C(=N3)N(C(=O)N4C)C5CCCC5)OC [AZ3146] + Cc1nc(NC(=O)N2CCC[C@H]2C(N)=O)sc1-c1ccnc(C(C)(C)C(F)(F)F)c1 [Alpelisib] (partner 2 µM)
Method in brief: as §1

[3] = compound: CCOC(=O)CCNc1cc(N2CCc3ccccc3CC2)nc(-c2ccccn2)n1 [GSK-J4] + N=C(N)NC(=N)NCCc1ccccc1 [Phenformin] (partner 250 µM)
Method in brief: as §1

[4] = compound: CCOC(=O)CCNc1cc(N2CCc3ccccc3CC2)nc(-c2ccccn2)n1 [GSK-J4] + CC1(C)CCC(c2ccc(Cl)cc2)=C(CN2CCN(c3ccc(C(=O)NS(=O)(=O)c4ccc(N[C@H](CCN5CCOCC5)CSc5ccccc5)c(S(=O)(=O)C(F)(F)F)c4)cc3)CC2)C1 [Navitoclax] (partner 0.5 µM)
Method in brief: as §1

Cell Line | relative viability ([1]; first compound 0.08 µM) | relative viability ([1]; first compound 0.253 µM) | relative viability ([1]; first compound 0.8 µM) | relative viability ([1]; first compound 2.53 µM) | relative viability ([1]; first compound 8 µM) | relative viability ([2]; first compound 0.08 µM) | relative viability ([2]; first compound 0.253 µM) | relative viability ([2]; first compound 0.8 µM) | relative viability ([2]; first compound 2.53 µM) | relative viability ([2]; first compound 8 µM) | relative viability ([3]; first compound 0.5 µM) | relative viability ([3]; first compound 1.581 µM) | relative viability ([3]; first compound 5 µM) | relative viability ([3]; first compound 15.81 µM) | relative viability ([3]; first compound 50 µM) | relative viability ([4]; first compound 0.5 µM) | relative viability ([4]; first compound 1.581 µM) | relative viability ([4]; first compound 5 µM) | relative viability ([4]; first compound 15.81 µM) | relative viability ([4]; first compound 50 µM)
201T | 0.994 | 1.03 | 0.979 | 1.09 | 1.04 | 0.943 | 0.918 | 0.954 | 0.993 | 1 | 0.444 | 0.479 | 0.374 | 0.384 | 0.352 | 1.19 | 1.28 | 1.25 | 1.21 | 1.16
A549 |  |  |  |  |  | 0.716 | 0.794 | 0.718 | 0.732 | 0.308 | 0.146 | 0.156 | 0.0648 | 0.0756 | 0.103 | 1.08 | 1.15 | 1.24 | 1.24 | 1.2
A-427 | 0.819 | 0.895 | 0.913 | 0.879 | 0.818 | 1.04 | 1.06 | 1.01 | 0.93 | 1.02 | 0.406 |  | 0.219 | 0.218 | 0.138 | 0.951 |  | 0.925 | 0.906 | 0.782
ABC-1 | 0.331 | 0.483 | 0.782 | 0.568 | 0.532 | 0.968 | 0.981 | 1.23 | 1 | 1.09 | 0.232 | 0.259 | 0.245 | 0.217 | 0.201 |  |  |  |  | 
BEN |  | 0.224 | 0.637 | 0.282 | 0.269 |  | 0.967 | 1.06 | 1.07 | 0.895 | 0.25 | 0.261 |  | 0.276 | 0.254 | 0.0769 | 0.0597 |  | 0.0496 | 0.042
CAL-12T | 0.267 | 0.573 | 0.423 | 0.556 | 0.341 | 1.21 | 1.31 | 1.36 | 1.31 | 0.765 | 0.702 | 0.549 | 0.532 | 0.554 | 0.42 | 1.2 | 1.17 | 1.47 | 1.16 | 1.21
COR-L23 | 0.618 | 0.693 | 0.624 | 0.69 | 0.611 | 0.705 | 0.74 | 0.766 | 0.824 | 0.639 | 0.412 | 0.408 |  | 0.39 | 0.393 | 0.886 | 1.02 |  | 0.929 | 0.956
COR-L 105 | 0.776 | 0.8 | 0.815 | 0.824 | 0.678 | 1.01 | 1.15 | 0.86 | 1.1 | 0.665 | 0.408 | 0.395 | 0.381 | 0.475 | 0.578 | 0.692 | 0.551 | 0.647 | 0.88 | 0.679
Calu-6 |  |  |  |  |  | 1.01 | 1.01 | 1.04 | 1.03 | 0.787 |  |  |  |  |  | 0.86 | 0.74 | 0.779 | 0.874 | 0.716
ChaGo-K-1 | 0.651 | 0.528 | 0.618 | 0.816 | 0.588 |  |  |  |  |  | 0.488 | 0.49 | 0.438 | 0.475 | 0.422 | 1.09 |  | 1.02 | 1.03 | 0.895
EBC-1 |  |  |  |  |  | 0.927 | 0.828 | 0.731 | 0.882 | 0.711 |  |  |  |  |  | 0.367 | 0.4 | 0.356 | 0.4 | 0.264
EKVX | 0.836 | 0.842 | 0.838 | 0.981 | 0.899 | 0.865 | 0.802 | 0.716 | 0.981 | 1 | 0.252 | 0.213 | 0.236 | 0.177 | 0.237 | 0.871 | 0.874 | 1.12 | 0.834 | 0.951
EMC-BAC-2 | 1.13 | 1.16 | 1.17 | 1.31 | 1.22 | 0.718 | 0.718 | 0.768 | 0.743 | 0.84 | 0.502 | 0.471 | 0.267 | 0.51 | 0.34 | 1.17 | 1.07 | 1.24 | 1.04 | 1.13
EPLC-272H |  | 0.342 | 0.519 | 0.323 | 0.321 | 0.706 | 0.925 | 0.933 | 0.973 | 0.964 | 0.347 | 0.24 | 0.192 | 0.3 | 0.154 | 1.14 |  | 1.21 | 0.979 | 1.02
H3255 | 0.841 | 0.801 | 0.841 | 0.911 | 0.866 | 0.749 | 0.649 | 0.664 | 0.754 | 0.656 | 0.331 | 0.381 | 0.36 | 0.312 | 0.365 | 0.474 | 0.494 | 0.543 | 0.368 | 0.444
HARA | 0.895 | 0.823 | 0.711 | 0.816 | 0.512 | 0.629 | 0.785 | 0.883 | 0.909 | 0.725 | 0.455 |  |  | 0.396 | 0.386 | 1.16 | 0.827 |  | 1.15 | 0.916
HCC-15 | 0.262 | 0.393 | 0.531 | 0.785 | 0.552 | 0.939 | 0.899 | 0.864 | 0.822 | 0.893 | 0.458 |  | 0.376 | 0.384 | 0.344 | 0.692 | 0.701 | 0.779 | 0.566 | 0.444
HCC-44 | 0.884 | 1.02 | 1.17 | 1.02 | 0.999 | 0.676 | 0.805 | 0.797 | 0.807 | 0.859 | 0.253 | 0.222 | 0.134 | 0.124 | 0.137 | 0.973 | 0.91 | 1.08 | 0.817 | 0.898
